We go through two substances from patent US8623832B2, “Peptide compositions that bind TLR-4” (The Board of Regents of the University of Oklahoma, priority 2011, dated 2014).

Where no end group is shown, it is not given here.

One assay has as its system NF-κB. In words: NF-κB luciferase reporter activity in LPS-challenged SW480 cells. It is filed as cell-based, human. The note with it: LPS 1.0 μg/ml. How it is done: NF-κB activity: Since binding of LPS to TLR4 activates NF-κB through MYD88-dependent and independent pathways, the effects of SPA4 peptide on basal and LPS-induced NF-κB activity were investigated in SW480 cells transfected with a dominant negative construct of MYD88 (MYD88DN) and NF-κB firefly-luciferase reporter plasmid DNA. Both the short-(1 hour) and long-term (5 hours) effects of the SPA4 peptide on NF-κB activity were studied.
The SW480 cells were transiently-transfected with NF-κB firefly-luciferase reporter plasmid pGL4.32 (luc2P/NF-κB-RE/Hygro, Promega, WI; provided by Dr. Kelly Standifer, Department of Pharmaceutical Sciences, University of Oklahoma Health Sciences Center, Oklahoma City, Okla.) and MYD88-dominant negative plasmid construct (MYD88DN, provided by Dr. Ruslan Medzhitov, Yale University, CT). MYD88 dominant negative plasmid DNA construct lacked the death domain and intermediate domain (Medzhitov et al., 1998). Briefly, NF-κB-Luciferase reporter and MYD88-dominant negative plasmids (1.0 μg each) were mixed with 6 μl of Fugene HD reagent (Roche, Ind.) in 92 μl of serum-free low-glucose DMEM medium (Invitrogen, CA), and incubated for 20 minutes at room temperature. The transfection-mix was then added to the SW480 cells. The SW480 cells transfected with a plasmid DNA construct expressing enhanced green fluorescent protein (pHYG-EGFP; Clontech, CA) were observed under Leica DM4000B fluorescent microscope. The transfection efficiency was calculated as percent of cells expressing EGFP over total number of cells in the brightfield channel. […]
After completion of the incubation period, the medium supernatants were removed and cells were washed with room-temperature DPBS. […] The firefly-luciferase activity (measurement of NF-κB activity) was measured using the luciferase reporter assay system (Promega, Fitchburg, Wis.). Briefly, 50 μl of luciferase assay reagent was added to the 20 μl cell lysate by automated dispenser of Synergy HT multi-mode microplate reader (Biotek, Winooski, Vt.), and luminescence was read within 10 seconds. […]
(In a reporter assay the amount or activity of a reporter protein is the signal.)

The nature of assay [1]: Binding to LPS by Limulus Amoebocyte Lysate (LAL) assay. Also noted: species or system Escherichia coli. The note with it: 0-20 μM peptide; 0.01 ng/ml LPS; read at 6 and 12 minutes. How it is done:
Binding of SPA4 peptide to LPS: The binding of SPA4 peptide to LPS was studied by LAL assay as per the method described by Giacometti et al. (2004). Briefly, 0-20 μM SPA4 peptide or polymyxin B (positive control) solutions were added to 0.01 ng/ml Escherichia coli O111:B4 LPS (supplied with the kit, Charles River Laboratories International, Inc., Wilmington, Mass.) in the wells of a 96 well plate and incubated at 37° C. for 40 minutes. Fifty μl of LAL substrate solution was then added to each well, and the plate was incubated for another 10 minutes. Finally, substrate-buffer solution was added, and optical density readings (OD) were obtained at 405 nm after 0, 6 and 12 minutes of addition of substrate. AOD values for SPA4 peptide or polymyxin B incubated with LPS (ΔODtreatment), LPS alone (ΔODLPS) and blank (ΔODBlank) were calculated by subtracting the OD values obtained at 6 or 12 minutes from those obtained at 0 minutes. Percent binding of SPA4 peptide and polymyxin B was calculated at 6 and 12 minutes of reaction using following formula: […]

In assay [2] the test system is primary adult baboon lung DCs and fetal baboon lung DC-precursor cells. The assay is described as follows: Phagocytosis of pHrodo-labeled E. coli bioparticles by primary baboon lung DCs / fetal DC-precursor cells. In kind it is cell-based. How it is done: Freshly collected lobe of the lung or whole lung samples of adult and fetal baboons were transported on ice in RPMI 1640 medium containing 2 mM glutamine, 1 mM HEPES, 10 μg/ml gentamicin, 100 U/ml penicillin, 100 μg/ml streptomycin and 10% FBS. After a mild mechanical disruption, the single cell suspension was seeded in a tissue culture flask (Nalge-Nunc International Corp, NY) at a density of 30-50×10^6 leukocytes/175 cm^2 flask in RPMI 1640 medium containing 2 mM glutamine, 1 mM HEPES, 10 μg/ml gentamicin, 100 U/ml penicillin, 100 μg/ml streptomycin and 10% FBS. The light-density DC-populations were harvested using OptiPrep cell-separation solution (density 1.32 g/ml, Accurate Chemicals, NY) (Awasthi and Cooper, 2006; Awasthi et al., 2009). The immunophenotype and basic characteristics of the lung DC-population isolated from fetal and adult baboons have been described earlier (Awasthi et al., 2009). Here, first the immunophenotype of KG-1-derived DCs and fetal baboon lung DC-precursors or adult baboon lung DCs were compared by flow cytometry. Briefly, cells were suspended in Dulbecco's phosphate buffered saline (DPBS) containing 1% FBS and 0.09% sodium azide and incubated with fluorochrome-conjugated antibodies to HLA-DP, DQ, DR, CD11c, CD40, CD80, CD86 (typical DC-markers) as described earlier.
After confirming that the fluorescence is of phagocytosed bioparticles, comprehensive experiments were performed in presence and absence of effector molecules (SP-A and TLR4-MD2 proteins). […] The fluorescence readings were taken at 550 nm excitation and 600 nm emission wavelengths using SpectraMax M2 spectrofluorometer (Molecular Devices, CA).
The phagocytosis index was calculated by subtracting the average fluorescence intensity of the reaction with bioparticles alone from the control (basal without any effector molecules) and experimental wells. Finally, the percent effect was calculated using the following formula: % effect=(Net experimental phagocytosis/Net basal phagocytosis)×100%

With “GDFRYSDGTPVNYTNWYRGE [SPA4, GDFRYSDGT PVNYTNWYRGE]”, the “LPS induced NF-κB activity at 9 hours” value in the assay on NF-κB (SPA4 1, 10 or 50 μM, long-term) is on record as “not significantly inhibited”. For the same substance, in the assay with NF-κB (SPA4 10 and 50 μM, short-term), the “LPS induced-NF-κB activity after 5 hours” value is recorded as “reduces”. Moreover, the “NF-κB activity in cells transfected with dominant negative construct of MYD88” value in the assay with NF-κB (MYD88DN) is “did not further reduce”. The “binding to LPS” value in assay [1] was “does not bind to LPS”.
As to “SP-A: native surfactant protein-A purified from bronchioalveolar lavage fluid of a normal healthy adult baboon (MWLCPLALTLTLMAASGAACEVKDVCVGSPGIPGTPGSHGLPGRDGRDGVKGDPGPP; listed as Papio cynocephalus)”, the “phagocytic uptake of E. coli” value in assay [2] (SP-A 2 μM, TLR4-MD2 0.3 μM) was “increased”. Moreover, the “phagocytic uptake of E. coli when SP-A and TLR4-MD2 proteins were added together” value in assay [2] (uptake remained increased versus basal) was “no additive effect”.
